This test has as its target PARP7 (Homo sapiens (Human), UniProt Q7Z3E1). Nature of the test: In vitro enzymology experiment of PARP7 (enzymatic inhibition). It counts as biochemical. On the procedure: II. In Vitro Enzymology Experiment of PARP2, 3, 5A, 5B, 7, 12, and 15
1. Preparation of 384-well histone-coated plate: 25 μL of histone solution was added to each well, and the plate was incubated overnight at 4° C.
2. Preparation of PBST buffer, blocking buffer, and assay buffer
3. The 384-well histone-coated plate was washed three times with PBST buffer. The plate was blocked by 50 μL of blocking buffer for 1 hour at room temperature. The plate was then washed three times with PBST buffer.
2000× compound was prepared in a 96-well source plate. 50 nL of the compound was transferred from the source plate to a 96-well intermediate plate, and 39.95 μL of assay buffer was added to each well. The plate was shaken well and centrifuged at 1000 rpm for 1 minute.
5 μL of compound DMSO solution was transferred to each well.
An enzyme mixture was incubated at 25° C. for 10 minutes.
10 μL of the enzyme mixture was added, and incubated with the compound at room temperature for 10 minutes.
10 μL of assay buffer was added to the negative control well of the assay plate.
The plate was then washed three times with PBST buffer.
25 μL of Stre-HRP was added.
The plate was incubated at room temperature for 1 hour and washed three times with PBS buffer.
25 μL of QuantaRed Enhancer mix was added. The plate was incubated for 10 minutes.
2.5 μL of QuantaRed Stop Solution was added to terminate the peroxidase reaction, and the plate was shaken for 10 to 30 seconds.
7. Paradigm was used to read the plate immediately to detect the readings at Ex550/Em620.
Using equation (1) to fit the data in Excel to obtain inhibition values
Using equation (2) to fit the data in XL-Fit to obtain IC50 values
Y is the percentage of inhibition, and X is the compound concentration.
PARP7, sequence (Q7Z3E1 whole entry): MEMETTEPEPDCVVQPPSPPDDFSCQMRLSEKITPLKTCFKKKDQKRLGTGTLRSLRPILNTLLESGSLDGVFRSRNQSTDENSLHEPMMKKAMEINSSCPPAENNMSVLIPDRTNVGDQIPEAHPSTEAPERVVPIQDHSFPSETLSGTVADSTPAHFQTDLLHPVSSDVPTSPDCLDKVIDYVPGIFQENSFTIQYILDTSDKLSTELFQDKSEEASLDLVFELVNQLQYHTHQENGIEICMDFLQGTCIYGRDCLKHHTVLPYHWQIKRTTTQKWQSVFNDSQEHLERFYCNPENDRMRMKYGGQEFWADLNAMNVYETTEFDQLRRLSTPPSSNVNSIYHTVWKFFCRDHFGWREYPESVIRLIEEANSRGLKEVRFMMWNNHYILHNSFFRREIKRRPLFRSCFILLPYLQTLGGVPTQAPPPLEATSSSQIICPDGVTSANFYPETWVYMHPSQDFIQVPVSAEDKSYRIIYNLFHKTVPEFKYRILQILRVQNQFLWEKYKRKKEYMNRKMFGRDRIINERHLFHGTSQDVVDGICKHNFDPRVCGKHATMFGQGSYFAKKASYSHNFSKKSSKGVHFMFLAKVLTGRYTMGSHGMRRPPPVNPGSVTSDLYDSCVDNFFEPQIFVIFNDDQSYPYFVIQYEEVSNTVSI
Regarding `CNC(=O)c1ccc(N2CCN(C(=O)O[C@@H](C)Cc3c[nH]c(=O)c(C(F)(F)F)c3)CC2)cn1` [Example 88, (S)-1-(6-Oxo-5-(trifluoromethyl)-1,6-dihydropyridin-3-yl)propan-2-yl 4-(6-(methylcarbamoyl)pyridin-3-yl)piperazine-1-carboxylate], inhibition was half-maximal at 1.98 nM (IC50).
In the case of `O=C(Cc1cccc(-c2c[nH]c(=O)c(C(F)(F)F)c2)c1)N1CCN(c2ncc(C(F)(F)F)cn2)CC1` [Example 96, 5-(3-(2-Oxo-2-(4-(5-(trifluoromethyl)pyrimidin-2-yl)piperazin-1-yl)ethyl)phenyl)-3-(trifluoromethyl)pyridin-2(1H)-one] it was 1.03 nM; in that of `C[C@H](COC(=O)N1CCN(c2ncc(C(F)(F)F)cn2)CC1)c1c[nH]c(=O)c(C(F)(F)F)c1` [Example 26], 0.6 nM; in that of `O=C(CCOc1c[nH]c(=O)c(C(F)(F)F)c1)N1CCN(c2ncc(C(F)(F)F)cn2)CC1` [Example 17, 5-(3-Oxo-3-(4-(5-(trifluoromethyl)pyrimidin-2-yl)piperazin-1-yl)propoxy)-3-(trifluoromethyl)pyridin-2(1H)-one], 2.79 nM.
For `C[C@@H](Cc1c[nH]c(=O)c(C(F)(F)F)c1)OC(=O)N1CCN(c2ncc(C3CC3)cn2)CC1` [Example 176, (S)-1-(6-Oxo-5-(trifluoromethyl)-1,6-dihydropyridin-3-yl)propan-2-yl 4-(5-cyclopropylpyrimidin-2-yl)piperazine-1-carboxylate], 1.7 nM corresponded to half-maximal inhibition (IC50).
To `O=C(OCCc1c[nH]c(=O)c(C(F)(F)F)c1)N1CCN(c2ncc(C3CCCC3)cn2)CC1` [Example 119, 2-(6-Oxo-5-(trifluoromethyl)-1,6-dihydropyridin-3-yl)ethyl 4-(5-cyclopentylpyrimidin-2-yl)piperazine-1-carboxylate] belongs 0.24 nM; to `CC(Cc1c[nH]c(=O)c(C(F)(F)F)c1)OC(=O)N1CCN(c2ncccn2)CC1` (centres unmarked) [Example 42, 1-(6-Oxo-5-(trifluoromethyl)-1,6-dihydropyridin-3-yl)propan-2-yl 4-(pyrimidin-2-yl)piperazine-1-carboxylate], 1.46 nM; to `O=C(OCCc1c[nH]c(=O)c(C(F)(F)F)c1)N1CCN(c2ncc(C3CC3)cn2)CC1` [Example 152, 2-(6-Oxo-5-(trifluoromethyl)-1,6-dihydropyridin-3-yl)ethyl 4-(5-cyclopropylpyrimidin-2-yl)piperazine-1-carboxylate], 0.76 nM.
To `C[C@@H](Cc1c[nH]c(=O)c(C(F)(F)F)c1)OC(=O)N1CCN(c2ncc(Cl)cn2)CC1` [Example 85, (S)-1-(6-Oxo-5-(trifluoromethyl)-1,6-dihydropyridin-3-yl)propan-2-yl 4-(5-chloropyrimidin-2-yl)piperazine-1-carboxylate] belongs 0.56 nM.
Turning to `C[C@@H](Cc1c[nH]c(=O)c(C(F)(F)F)c1)OC(=O)N1CCN(c2ncc(C(C)(C)O)cn2)CC1` [Example 100, (S)-1-(6-Oxo-5-(trifluoromethyl)-1,6-dihydropyridin-3-yl)propan-2-yl 4-(5-(2-hydroxypropan-2-yl)pyrimidin-2-yl)piperazine-1-carboxylate], the half-maximal inhibitory concentration (IC50) stood at 0.61 nM.
In the case of `C[C@@H]1CN(C(=O)O[C@@H](C)Cc2c[nH]c(=O)c(C(F)(F)F)c2)CCN1c1ncc(C(F)(F)F)cn1` [Example 94, (S)-1-(6-Oxo-5-(trifluoromethyl)-1,6-dihydropyridin-3-yl)propan-2-yl (R)-3-methyl-4-(5-(trifluoromethyl)pyrimidin-2-yl)piperazine-1-carboxylate] it was 0.68 nM.
`C[C@@H]1CN(c2ncc(C3CC3)cn2)C[C@H](C)N1C(=O)O[C@@H](C)Cc1c[nH]c(=O)c(C(F)(F)F)c1` [Example 174, (S)-1-(6-Oxo-5-(trifluoromethyl)-1,6-dihydropyridin-3-yl)propan-2-yl (2R,6S)-4-(5-cyclopropylpyrimidin-2-yl)-2,6-dimethylpiperazine-1-carboxylate] returned an IC50 of 1.3 nM.
To `CC(Cc1c[nH]c(=O)c(C(F)(F)F)c1)OC(=O)N1CCN(c2ncccc2C#N)CC1` (centres unmarked) [Example 46, 1-(6-Oxo-5-(trifluoromethyl)-1,6-dihydropyridin-3-yl)propan-2-yl 4-(3-cyanopyridin-2-yl)piperazine-1-carboxylate] belongs 1.94 nM; to `Cc1cnc(N2CCN(C(=O)OC(C)Cc3c[nH]c(=O)c(C(F)(F)F)c3)CC2)nc1` (centres unmarked) [Example 43, 1-(6-Oxo-5-(trifluoromethyl)-1,6-dihydropyridin-3-yl)propan-2-yl 4-(5-methylpyrimidin-2-yl)piperazine-1-carboxylate], 0.9 nM.
In the case of `O=C(OCCc1c[nH]c(=O)c(C(F)(F)F)c1)N1CCN(c2ccc(C(F)(F)F)cn2)CC1` [Example 106, 2-(6-Oxo-5-(trifluoromethyl)-1,6-dihydropyridin-3-yl)ethyl 4-(5-(trifluoromethyl)pyridin-2-yl)piperazine-1-carboxylate] it was 0.46 nM; in that of `O=C(O[C@@H](CO)Cc1c[nH]c(=O)c(C(F)(F)F)c1)N1CCN(c2ncc(C(F)(F)F)cn2)CC1` [Example 117, (R)-1-Hydroxy-3-(6-oxo-5-(trifluoromethyl)-1,6-dihydropyridin-3-yl)propan-2-yl 4-(5-(trifluoromethyl)pyrimidin-2-yl)piperazine-1-carboxylate], 0.62 nM.
As to `C[C@@H]1CN(c2ncc(C3CC3)cn2)C[C@H](C)N1C(=O)OCCc1c[nH]c(=O)c(C(F)(F)F)c1` [Example 151, 2-(6-Oxo-5-(trifluoromethyl)-1,6-dihydropyridin-3-yl)ethyl (2R,6S)-4-(5-cyclopropylpyrimidin-2-yl)-2,6-dimethylpiperazine-1-carboxylate], the half-inhibitory concentration (IC50) was 1.1 nM.
To `Cc1cc(C(F)(F)F)cnc1N1CCN(C(=O)OCCc2c[nH]c(=O)c(C(F)(F)F)c2)CC1` [Example 132, 2-(6-Oxo-5-(trifluoromethyl)-1,6-dihydropyridin-3-yl)ethyl 4-(3-methyl-5-(trifluoromethyl)pyridin-2-yl)piperazine-1-carboxylate] belongs 0.78 nM.
In the case of `C[C@@H](Cc1c[nH]c(=O)c(C(F)(F)F)c1)OC(=O)N1CCN(c2ncc(F)cn2)CC1` [Example 65, (S)-1-(6-Oxo-5-(trifluoromethyl)-1,6-dihydropyridin-3-yl)propan-2-yl 4-(5-fluoropyrimidin-2-yl)piperazine-1-carboxylate] it was 0.65 nM.
Turning to `C[C@@H](Cc1c[nH]c(=O)c(C(F)(F)F)c1)OC(=O)N1CC[C@@H](Nc2ncc(C(F)(F)F)cn2)C1` [Example 53, (S)-1-(6-Oxo-5-(trifluoromethyl)-1,6-dihydropyridin-3-yl)propan-2-yl (R)-3-((5-(trifluoromethyl)pyrimidin-2-yl)amino) pyrrolidine-1-carboxylate], 2.3 nM corresponded to half-maximal inhibition (IC50).
Consider `C[C@@H](Cc1c[nH]c(=O)c(C(F)(F)F)c1)OC(=O)N1[C@@H](C)CN(c2ncc(C3CC3)cn2)C[C@@H]1C` [Example 177, (S)-1-(6-Oxo-5-(trifluoromethyl)-1,6-dihydropyridin-3-yl)propan-2-yl (2S,6S)-4-(5-cyclopropylpyrimidin-2-yl)-2,6-dimethylpiperazine-1-carboxylate], for which the IC50 is 0.78 nM.
To `O=C(Oc1cncc(-c2c[nH]c(=O)c(C(F)(F)F)c2)c1)N1CCN(c2ncc(C(F)(F)F)cn2)CC1` [Example 136, 6′-Oxo-5′-(trifluoromethyl)-1′,6′-dihydro-[3,3′-bipyridin]-5-yl 4-(5-(trifluoromethyl)pyrimidin-2-yl)piperazine-1-carboxylate] belongs 3.53 nM; to `C[C@@H](Cc1c[nH]c(=O)c(C(F)(F)F)c1)OC(=O)NC1CCN(c2ncc(C(F)(F)F)cn2)CC1` [Example 55, (S)-1-(6-Oxo-5-(trifluoromethyl)-1,6-dihydropyridin-3-yl)propan-2-yl (1-(5-(trifluoromethyl)pyrimidin-2-yl)piperidin-4-yl)carbamate], 3.42 nM.
To `C[C@@H]1CN(c2ncc(C(F)(F)F)cn2)[C@@H](C)CN1C(=O)O[C@@H](C)Cc1c[nH]c(=O)c(C(F)(F)F)c1` [Example 155, (S)-1-(6-Oxo-5-(trifluoromethyl)-1,6-dihydropyridin-3-yl)propan-2-yl (2R,5S)-2,5-dimethyl-4-(5-(trifluoromethyl)pyrimidin-2-yl)piperazine-1-carboxylate] belongs 0.59 nM; to `CC(Cc1c[nH]c(=O)c(C(F)(F)F)c1)OC(=O)N1CCN(c2ncc(Cl)cn2)CC1` (centres unmarked) [Example 44, 1-(6-Oxo-5-(trifluoromethyl)-1,6-dihydropyridin-3-yl)propan-2-yl 4-(5-chloropyrimidin-2-yl)piperazine-1-carboxylate], 0.8 nM.
In turn, `O=C(OC[C@H]1CCCN1c1c[nH]c(=O)c(C(F)(F)F)c1)N1CCN(c2ncc(C(F)(F)F)cn2)CC1` [Example 36, (R)-(1-(6-Oxo-5-(trifluoromethyl)-1,6-dihydropyridin-3-yl)pyrrolidin-2-yl)methyl 4-(5-(trifluoromethyl)pyrimidin-2-yl)piperazine-1-carboxylate] gave an IC50 of 0.38 nM.

For orientation: IC50 means the concentration at which inhibition is half-maximal. The low end stands for higher potency, the high end for lower potency.

For the origin of these results see US20240351997A1, “NOVEL PARP7 INHIBITOR AND USE THEREOF” (SHANGHAI QILU PHARMACEUTICAL RESEARCH AND DEVELOPMENT …, priority 2021, published 2024).
